Several values for one entry are separate records, joined by “and”; a condition that tells them apart may be missing. Identical values can stand only once.
Assays:
[1] = molecular target: T1, HIV-1 RT-associated RNase H (Human immunodeficiency virus type 1 group M subtype B, UniProt P03366); experiment: HIV-1 RT-associated RNase H assay (fluorescent RNA/DNA hybrid); assay type: biochemical
T1 construct: Human immunodeficiency virus type 1 heterodimeric RT was expressed and purified; made in house
Protocol: Human immunodeficiency virus type 1 heterodimeric RT was expressed and purified as previously described ([Esposito et al., 2011]; [Meleddu et al., 2014]). The HIV-1 RT-associated RNase H activity was measured as described ([Corona et al., 2014a]; [Meleddu et al., 2015]). Briefly, 20 ng of HIV-1 RT was incubated in 100 μL reaction volume containing 50 mM Tris-HCl (pH 7.8), 6 mM MgCl2, 1 mM DTT, 80 mM KCl, hybrid RNA/DNA (5′-[…]-3′-Fluorescein, 5′-[…]-3′-Dabcyl) and 2 nM RT. The reaction mixture was incubated for 1 h at 37°C; the reaction was stopped by addition of EDTA and products were measured with a Victor 3 (Perkin Elmer model 1420-051) equipped with filters for 490/528 nm (excitation/emission wavelength).

[2] = molecular target: HIV-1 IN in presence of LEDGF/p75 (Human immunodeficiency virus type 1 group M subtype B, UniProt P03366); experiment: HIV-1 IN/LEDGF HTRF LEDGF-dependent integration assay
Protocol: The IN-LEDGF/p75 dependent assay allows to measure the inhibition of 3′ processing and strand transfer IN reactions in presence of recombinant LEDGF/p75 protein, as previously described ([Tintori et al., 2015]). Briefly, 50 nM IN was pre-incubated with increasing concentration of compounds for 1 h at room temperature in reaction buffer containing 20 mM HEPES pH 7.5, 1 mM DTT, 1% glycerol, 20 mM MgCl2, 0.05% Brij-35 and 0.1 mg/ml BSA. DNA donor substrate, DNA acceptor substrate and 50 nM LEDGF/p75 protein were added and incubated at 37°C for 90 min. After the incubation, 4 nM of Europium-Streptavidin were added to the reaction mixture and the HTRF signal was recorded using a Perkin Elmer Victor 3 plate reader using a 314 nm for excitation wavelength and 668 and 620 nm for the wavelength of the acceptor and the donor substrates emission, respectively.

[3] = in vitro; assay type: cell-based; settings: human
Protocol: (§1) The procedure to determine anti-HIV activity and cytotoxicity of the compounds in human lymphocyte MT-4 cells was published elsewhere ([Pannecouque et al., 2008]). Briefly, serial dilutions of the compounds were added to 96-well plates containing the MT-4 cells. To the virus-infected wells, 100–300 CCID50 (50% cell culture infectious dose-50%) of HIV-1 (strain IIIB) or HIV-2 (strain ROD) was added. The mock-infected wells received the compounds without the virus. After 5 days incubation, the spectrophotometric MTT assay was performed to determine the effect of the compounds on the viability of the mock- and HIV-infected cells.

[4] = system: HIV-1 (strain IIIB); experiment: Cell-based HIV assay in MT-4 cells (MTT, virus-induced cytopathic effect); settings: Human immunodeficiency virus 1, IIIB
Protocol: as §1

HIV-1 IN in presence of LEDGF/p75, sequence (O75475 whole entry, other chains not shown): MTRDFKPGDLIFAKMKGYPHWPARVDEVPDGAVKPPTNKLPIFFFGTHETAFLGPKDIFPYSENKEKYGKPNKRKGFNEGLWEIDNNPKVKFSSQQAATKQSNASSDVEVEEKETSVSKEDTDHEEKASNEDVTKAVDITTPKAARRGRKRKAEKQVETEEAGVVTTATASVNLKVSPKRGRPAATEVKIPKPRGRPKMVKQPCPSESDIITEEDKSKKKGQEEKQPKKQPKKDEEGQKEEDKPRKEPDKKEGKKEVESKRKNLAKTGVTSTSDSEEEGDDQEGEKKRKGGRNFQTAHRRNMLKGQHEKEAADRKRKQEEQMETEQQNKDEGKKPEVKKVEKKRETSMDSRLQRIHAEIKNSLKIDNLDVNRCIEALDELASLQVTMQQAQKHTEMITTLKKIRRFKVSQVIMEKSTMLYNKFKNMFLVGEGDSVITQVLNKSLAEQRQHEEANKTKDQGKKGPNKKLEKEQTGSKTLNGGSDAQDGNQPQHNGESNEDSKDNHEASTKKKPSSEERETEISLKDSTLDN

SMILES	IC50 [1]	IC50 [2] [µM]	also measured
O=C(N/N=C/c1cccc(O)c1O)c1ccccc1O [Compound 5]	> 100 µM	–	HIV-1 RNase H IC50 [1]: No inhibition
O=C(N/N=C/c1ccccc1)c1cc(O)c(O)c(O)c1 [Compound 11]	2.6 ± 0.6 µM	> 100	–
O=C(N/N=C/c1ccc(O)c(O)c1O)c1cc(O)c(O)c(O)c1 [Compound 20]	0.175 µM and 0.17 µM	0.085 ± 0.025	–
O=C(N/N=C/c1cccc(O)c1O)c1cc(O)c(O)c(O)c1 [Compound 14]	3.1 ± 0.5 µM	> 100	–
COc1ccc(O)c(/C=N/NC(=O)c2cc(O)c(O)c(O)c2)c1 [Compound 17]	2 ± 0.5 µM	> 100	–
O=C(N/N=C/c1cc(O)c(O)cc1O)c1ccccc1O [Compound 8]	8.8 ± 3.1 µM	30 ± 1	–
COc1cc(C(=O)N/N=C/c2cc(O)ccc2O)cc(OC)c1OC [Compound 19]	> 100 µM	> 100	–
O=C(N/N=C/c1ccccn1)c1cc(O)c(O)c(O)c1 [Compound 12]	3.2 ± 0.5 µM	> 100	–
CCOC(=O)C(=O)CC(=O)/C=C/c1cccn1Cc1ccc(F)cc1 [RDS1643, reference compound]	7.5 ± 0.9 µM	–	–
O=C(N/N=C/c1cc(O)c(O)c(O)c1)c1cc(O)c(O)c(O)c1 [Compound 23]	0.18 ± 0.03 µM	0.165 ± 0.025	–
O=C(N/N=C/c1c(O)cc(O)cc1O)c1cc(O)c(O)c(O)c1 [Compound 22]	9.7 ± 1.6 µM	1.8 ± 0.1	–
O=C(N/N=C/c1ccccc1O)c1cc(O)c(O)c(O)c1 [Compound 13]	2.3 ± 0.7 µM	> 100	–
O=C(N/N=C/c1ccc(O)c(O)c1O)c1ccccc1O [Compound 7]	25 µM and 25.3 µM	7.1 ± 0.2	–
O=C(N/N=C/c1cc(O)ccc1O)c1cc(O)c(O)c(O)c1 [Compound 16]	2.1 ± 0.1 µM	69 ± 5	–
O=C(N/N=C/c1cccc(O)c1O)c1ccccc1 [Compound 3]	> 100 µM	> 100	HIV-1 RNase H IC50 [1]: completely abolished
O=C(N/N=C/c1c(O)cc(O)cc1O)c1ccccc1O [Compound 9]	9.6 ± 3.4 µM	9.4 ± 0.4	–
COc1cccc(/C=N/NC(=O)c2ccccc2O)c1O [Compound 6]	37 ± 5 µM	> 100	–
O=C(N/N=C/c1cc(O)c(O)cc1O)c1cc(O)c(O)c(O)c1 [Compound 21]	0.62 ± 0.1 µM	0.08 ± 0.01	–
COc1cccc(/C=N/NC(=O)c2cc(O)c(O)c(O)c2)c1O [Compound 15]	0.92 ± 0.02 µM	> 100	–
O=C(N/N=C/c1ccc(O)cc1O)c1cc(O)c(O)c(O)c1 [Compound 18]	1.7 ± 0.1 µM	16 ± 3	CC50 at 5 days [3]: 61 µM; EC50 ([4]; MT4, 120 h, read-out: EC50 for HIV-1 (50% protection from virus-induced cytopathic effect), 5 days, mean ± SD of two independent tests): 17 ± 4 µM; inhibition at 25 µM ([4]; MT4, at a concentration of 25 μM): 55 to 82%; RNase H inhibition potency relative to IN activity ([1]; RNase H versus IN): ninefold more potently
COc1cccc(/C=N/NC(=O)c2ccccc2)c1O [Compound 4]	> 100 µM	–	HIV-1 RNase H IC50 [1]: completely abolished
CCCCCCCC(=O)N/N=C/c1cccc(OC)c1O [Compound 2]	~60 µM and 62 µM	–	–
CCCCCCCC(=O)N/N=C/c1cccc(O)c1O [Compound 1, N′-2,3-dihydroxy benzylidene heptyl hydrazone]	~60 µM and 61 µM	> 100	–
O=C(N/N=C/c1cc(O)c(O)c(O)c1)c1ccccc1O [Compound 10]	4.1 ± 0.2 µM	> 100	–
